Test results from PubChem BioAssay AID192 (DTP/NCI, 2004).
Values joined by “and” are separate entries in the source; they are usually repeats but may differ in a detail not shown here. Identical values can stand only once. Inconclusive results and toxic doses are left out.

Test system: BDF1 mice, B16 melanoma ip, median survival T/C
Experiment: NCI In Vivo Anticancer Drug Screen. Data for tumor model B16 Melanoma (intraperitoneal) in B6D2F1 (BDF1) mice
Settings: endpoint: median survival time, higher = longer survival
Summary of the method: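 In this screen, activity was judged from survival or tumor size in treated versus vehicle-treated tumor-bearing mice, reported as T/C.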

[1] = dose: 1.56 mg/kg/injection, schedule: Q01DX009 (ip), vehicle: Klucel (hydroxypropylcellulose) (HPC)
[2] = dose: 3.12 mg/kg/injection, schedule: Q01DX009 (ip), vehicle: Klucel (hydroxypropylcellulose) (HPC)
[3] = dose: 100.0 mg/kg/injection, schedule: Q01DX009 (ip), vehicle: saline
[4] = dose: 200.0 mg/kg/injection, schedule: Q01DX009 (ip), vehicle: saline
[5] = dose: 3.13 mg/kg/injection, schedule: Q01DX009 (ip), vehicle: saline
[6] = dose: 6.25 mg/kg/injection, schedule: Q01DX009 (ip), vehicle: saline
[7] = dose: 50.0 mg/kg/injection, schedule: Q01DX009 (ip), vehicle: saline with Tween-80
[8] = dose: 100.0 mg/kg/injection, schedule: Q01DX009 (ip), vehicle: saline with Tween-80
[9] = dose: 200.0 mg/kg/injection, schedule: Q01DX009 (ip), vehicle: saline with Tween-80
[10] = dose: 100.0 mg/kg/injection, schedule: Q01DX009 (ip), vehicle: Klucel (hydroxypropylcellulose) (HPC)
[11] = dose: 25.0 mg/kg/injection, schedule: Q01DX009 (ip), vehicle: saline
[12] = dose: 50.0 mg/kg/injection, schedule: Q01DX009 (ip), vehicle: saline
[13] = dose: 50.0 mg/kg/injection, schedule: Q01DX009 (ip), vehicle: water

CC(Cc1ccccc1)NC(=O)CCNNC(=O)c1ccncc1 (stereo not given)
T/C (dose: 0.39 mg/kg/injection, schedule: Q01DX009 (ip), vehicle: Klucel (hydroxypropylcellulose) (HPC)): 95 % of control
T/C (dose: 0.78 mg/kg/injection, schedule: Q01DX009 (ip), vehicle: Klucel (hydroxypropylcellulose) (HPC)): 87 % of control
T/C [1]: 90 % of control
T/C [2]: 95 % of control
T/C (dose: 6.25 mg/kg/injection, schedule: Q01DX009 (ip), vehicle: Klucel (hydroxypropylcellulose) (HPC)): 89 % of control
T/C (dose: 12.5 mg/kg/injection, schedule: Q01DX009 (ip), vehicle: Klucel (hydroxypropylcellulose) (HPC)): 91 % of control

Cc1ccccc1NC(=O)Nc1ccccc1F
T/C (dose: 100.0 mg/kg/injection, schedule: Q04DX003 (ip), vehicle: Klucel (hydroxypropylcellulose) (HPC)): 93 % of control
T/C (dose: 200.0 mg/kg/injection, schedule: Q04DX003 (ip), vehicle: Klucel (hydroxypropylcellulose) (HPC)): 93 % of control
T/C (dose: 400.0 mg/kg/injection, schedule: Q04DX003 (ip), vehicle: Klucel (hydroxypropylcellulose) (HPC)): 100 % of control

C[CH2][Pb]([CH2]C)([CH2]C)[N]1C(=O)c2ccccc2C1=O
T/C [1]: 112 % of control
T/C [2]: 109 % of control

COC(=O)C(N)CSCc1ccccc1 (stereo not given)
T/C [3]: 95 % of control
T/C [4]: 106 % of control

O=C(O)CCCc1ccc(N(CCCl)CCCl)cc1
T/C (dose: 0.37 mg/kg/injection, schedule: Q01DX009 (ip), vehicle: Klucel (hydroxypropylcellulose) (HPC)): 100 % of control
T/C (dose: 0.5 mg/kg/injection, schedule: Q01DX009 (ip), vehicle: Klucel (hydroxypropylcellulose) (HPC)): 93 % of control and 104 % of control
T/C (dose: 1.0 mg/kg/injection, schedule: Q01DX009 (ip), vehicle: Klucel (hydroxypropylcellulose) (HPC)): 101 % of control and 104 % of control and 117 % of control
T/C (dose: 1.5 mg/kg/injection, schedule: Q01DX009 (ip), vehicle: Klucel (hydroxypropylcellulose) (HPC)): 88 % of control and 89 % of control
T/C (dose: 1.88 mg/kg/injection, schedule: Q01DX009 (ip), vehicle: Klucel (hydroxypropylcellulose) (HPC)): 112 % of control
T/C (dose: 2.0 mg/kg/injection, schedule: Q01DX009 (ip), vehicle: Klucel (hydroxypropylcellulose) (HPC)): 100 % of control and 107 % of control and 109 % of control
T/C (dose: 2.0 mg/kg/injection, schedule: Q01DX017 (ip), vehicle: saline): 109 % of control
T/C (dose: 3.0 mg/kg/injection, schedule: Q01DX009 (ip), vehicle: Klucel (hydroxypropylcellulose) (HPC)): 86 % of control and 87 % of control
T/C [5]: 100 % of control
T/C (dose: 3.75 mg/kg/injection, schedule: Q01DX009 (ip), vehicle: Klucel (hydroxypropylcellulose) (HPC)): 110 % of control
T/C (dose: 4.0 mg/kg/injection, schedule: Q01DX009 (ip), vehicle: Klucel (hydroxypropylcellulose) (HPC)): 108 % of control and 109 % of control and 118 % of control
T/C (dose: 4.0 mg/kg/injection, schedule: Q01DX009 (ip), vehicle: saline): 104 % of control
T/C (dose: 4.0 mg/kg/injection, schedule: Q01DX017 (ip), vehicle: saline): 121 % of control
T/C (dose: 6.0 mg/kg/injection, schedule: Q01DX009 (ip), vehicle: Klucel (hydroxypropylcellulose) (HPC)): 89 % of control and 118 % of control
T/C [6]: 104 % of control
T/C (dose: 7.5 mg/kg/injection, schedule: Q01DX009 (ip), vehicle: Klucel (hydroxypropylcellulose) (HPC)): 116 % of control
T/C (dose: 8.0 mg/kg/injection, schedule: Q01DX001 (ip), vehicle: saline): 95 % of control
T/C (dose: 8.0 mg/kg/injection, schedule: Q01DX009 (ip), vehicle: Klucel (hydroxypropylcellulose) (HPC)): 111 % of control and 120 % of control
T/C (dose: 8.0 mg/kg/injection, schedule: Q01DX009 (ip), vehicle: saline): 119 % of control
T/C (dose: 8.0 mg/kg/injection, schedule: Q04DX003 (ip), vehicle: saline): 122 % of control
T/C (dose: 12.0 mg/kg/injection, schedule: Q01DX009 (ip), vehicle: Klucel (hydroxypropylcellulose) (HPC)): 100 % of control
T/C (dose: 16.0 mg/kg/injection, schedule: Q01DX001 (ip), vehicle: saline): 118 % of control
T/C (dose: 16.0 mg/kg/injection, schedule: Q01DX009 (ip), vehicle: saline): 121 % of control
T/C (dose: 16.0 mg/kg/injection, schedule: Q04DX003 (ip), vehicle: saline): 122 % of control

O=C(O)C(Br)C(Br)c1ccccc1 (stereo not given)
T/C (dose: 100.0 mg/kg/injection, schedule: Q04DX003 (ip), vehicle: saline with Tween-80): 86 % of control
T/C (dose: 200.0 mg/kg/injection, schedule: Q04DX003 (ip), vehicle: saline with Tween-80): 93 % of control
T/C (dose: 400.0 mg/kg/injection, schedule: Q04DX003 (ip), vehicle: saline with Tween-80): 86 % of control

CC1(C)N=C(N)N=C(N)N1c1ccc(OCCNS(=O)(=O)c2cccc(S(=O)(=O)F)c2)c(Cl)c1
T/C (dose: 12.5 mg/kg/injection, schedule: Q01DX009 (ip), vehicle: saline with Tween-80): 107 % of control
T/C (dose: 25.0 mg/kg/injection, schedule: Q01DX009 (ip), vehicle: saline with Tween-80): 113 % of control
T/C [7]: 120 % of control

CC(=O)NCc1cc(CNC(C)=O)c(C)cc1C
T/C [8]: 88 % of control
T/C [9]: 86 % of control

NC(CC(=O)CCl)C(=O)O (stereo not given)
T/C [5]: 109 % of control
T/C [6]: 118 % of control

Cc1cccc(NS(=O)(=O)c2ccccc2)c1C
T/C [7]: 98 % of control
T/C [10]: 96 % of control
T/C [8]: 98 % of control
T/C [9]: 97 % of control
T/C (dose: 400.0 mg/kg/injection, schedule: Q01DX009 (ip), vehicle: Klucel (hydroxypropylcellulose) (HPC)): 88 % of control

Cc1ccc(C)c(C2NC(=O)c3ccccc3N2)c1 (stereo not given)
T/C [10]: 121 % of control
T/C (dose: 200.0 mg/kg/injection, schedule: Q01DX009 (ip), vehicle: Klucel (hydroxypropylcellulose) (HPC)): 115 % of control

CCC1OCCN1C(C)C (stereo not given)
T/C [11]: 102 % of control
T/C [12]: 106 % of control

NC1=NN(c2ccccc2)CC1
T/C (dose: 0.5 mg/kg/injection, schedule: Q04DX003 (ip), vehicle: saline with Tween-80): 95 % of control
T/C (dose: 5.0 mg/kg/injection, schedule: Q01DX009 (ip), vehicle: saline with Tween-80): 104 % of control
T/C (dose: 10.0 mg/kg/injection, schedule: Q01DX009 (ip), vehicle: saline with Tween-80): 100 % of control
T/C (dose: 10.0 mg/kg/injection, schedule: Q04DX003 (ip), vehicle: saline with Tween-80): 95 % of control
T/C (dose: 20.0 mg/kg/injection, schedule: Q01DX009 (ip), vehicle: saline with Tween-80): 100 % of control
T/C (dose: 20.0 mg/kg/injection, schedule: Q04DX003 (ip), vehicle: saline with Tween-80): 95 % of control

CCN(CC)CCN(C)CCN(CC)CC
T/C [12]: 100 % of control
T/C [3]: 94 % of control

C[C@@H]1CCC[C@@H](NC(=O)N(CCCl)N=O)C1
T/C (dose: 4.7 mg/kg/injection, schedule: Q01DX009 (ip), vehicle: Klucel (hydroxypropylcellulose) (HPC)): 103 % of control
T/C (dose: 18.7 mg/kg/injection, schedule: Q01DX009 (ip), vehicle: Klucel (hydroxypropylcellulose) (HPC)): 210 % of control
T/C (dose: 18.75 mg/kg/injection, schedule: Q01DX009 (ip), vehicle: Klucel (hydroxypropylcellulose) (HPC)): 192 % of control
T/C (dose: 37.5 mg/kg/injection, schedule: Q01DX009 (ip), vehicle: Klucel (hydroxypropylcellulose) (HPC)): 103 % of control and 229 % of control

COc1cc(C2C3=C(CC(C)(C)CC3=O)N(CC(=O)O)C3=C2C(=O)CC(C)(C)C3)ccc1O
T/C [13]: 103 % of control
T/C (dose: 100.0 mg/kg/injection, schedule: Q01DX009 (ip), vehicle: water): 101 % of control
T/C (dose: 200.0 mg/kg/injection, schedule: Q01DX009 (ip), vehicle: water): 115 % of control

CCCC[P+](c1ccccc1)(c1ccccc1)c1ccccc1
T/C [6]: 90 % of control
T/C [11]: 95 % of control

CC(C)[NH-].CC(C)[NH-].[Cl][Pt+2][Cl]
T/C (dose: 12.5 mg/kg/injection, schedule: Q01DX009 (ip), vehicle: dextrose): 155 % of control

CC(NC(=O)C(N)CCC(=O)O)C(=O)O (stereo not given)
T/C [12]: 97 % of control
T/C [3]: 90 % of control
T/C [4]: 90 % of control
T/C (dose: 400.0 mg/kg/injection, schedule: Q01DX009 (ip), vehicle: saline): 94 % of control

NNC(=O)c1ccccn1
T/C (dose: 25.0 mg/kg/injection, schedule: Q01DX009 (ip), vehicle: water): 106 % of control
T/C [13]: 113 % of control
